Test results reported in patent US4198507A (Hoffmann-La Roche Inc., priority 1978, dated 1980).

What was measured:
[1] = prior art; cited from earlier work
gastrointestinal tract = settings: compared with the parent xanthines; prior art; cited from earlier work
[2] = prior art; cited from earlier work; remark: listed apart in the source
Mice = assay: Acute toxicity, mice p.o. (72 hours); assay type: in vivo
Procedure: 1. Acute Toxicity LC50 Mice p.o. (72 hours)

Compound	water solubility (in words) [1]	Acute Toxicity LC50 (Mice)	further results
Cn1cnc2c1c(=O)[nH]c(=O)n2C [theobromine sodium salicylate]	soluble		
theophylline calcium salicylate			tolerance in the gastrointestinal tract (gastrointestinal tract): better tolerated; reaction in aqueous solutions or suspensions [2]: alkaline reactions
Cn1c(=O)c2[nH]cnc2n(C)c1=O [Theophylline anhydrous, 1, 3, dimethyl xanthine]		460 ± 35 mg	
O=C(O)c1ccccc1O [Magnesium Sailicylate, magnesium salicylate]		1200 ± 53 mg	
CC(=O)[O-].Cn1c(=O)c2[nH]cnc2n(C)c1=O.[Na+] [theophylline sodium acetate]	soluble in water		
